Experimental data as given in patent US6403633B2, “Heteroaryl amidines, methylamidines and guanidines, and use thereof as protease inhibitors” (3-Dimensional Pharmaceuticals, Inc., priority 1998, dated 2002).
Counter-ions that a name gives are not always drawn. Like-named read-outs stand apart in the source and are kept apart here.

Experiments:
bovine trypsin = biological target: T1, bovine trypsin (Bos taurus, UniProt P00760); assay: In vitro inhibition of purified enzymes, Ki determination: trypsin; type: biochemical; details: substrate N-benzoyl-Phe-Val-Arg-p-nitroanilide 13 μM, [Trypsin]=4 nM, pH 7.5, 37° C.
T1 construct: purchased Sigma T8642
T1 sequence (P00760 24-246): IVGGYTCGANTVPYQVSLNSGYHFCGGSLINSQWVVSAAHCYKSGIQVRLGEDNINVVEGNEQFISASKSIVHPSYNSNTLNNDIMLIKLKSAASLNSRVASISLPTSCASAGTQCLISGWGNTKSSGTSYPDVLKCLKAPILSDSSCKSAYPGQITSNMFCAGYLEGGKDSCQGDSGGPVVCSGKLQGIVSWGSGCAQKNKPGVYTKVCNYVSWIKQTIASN
Excerpt: (§1) Reagents: All buffer salts were obtained from Sigma Chemical Company (St. Louis, Mo.), and were of the highest purity available. The enzyme substrates, N-benzoyl-Phe-Val-Arg-p-nitroanilide (Sigma B7632), N-benzoyl-Ile-Glu-Gly-Arg-p-nitroanilide hydrochloride (Sigma B2291), N-p-tosyl-Gly-Pro-Lys-p-nitroanilide (Sigma T6140), N-succinyl-Ala-Ala-Pro-Phe-p-nitroanilide (Sigma S7388) and N-CBZ-Val-Gly-Arg-p-nitroanilide (Sigma C7271) were obtained from Sigma. N-Succinyl-Ala-Ala-Pro-Arg-p-nitroanilide (BACHEM L-1720) and N-succinyl-Ala-Ala-Pro-Val-p-nitroanilide (BACHEM L-1770) were obtained from BACHEM (King of Prussia, Pa).
Human α-thrombin, human factor Xa and human plasmin were obtained from Enzyme Research Laboratories (South Bend, Ind.). […] In general, substrate concentrations are lower than the experimentally determined value for Km. […]
In a typical Ki determination, into each well of a 96 well plate is pipetted 280 μL of substrate solution, 10 μL of test compound solution, and the plate allowed to thermally equilibrate at 37° C. in a Molecular Devices plate reader for >15 minutes. Reactions were initiated by the addition of a 10 μL aliquot of enzyme and the absorbance increase at 405 nm is recorded for 15 minutes. […] The data are fit to a linear regression, and the value of the slope of the line calculated. The inverse of the slope is the experimentally determined Ki value. […]

human kidney urokinase = biological target: T2, human kidney urokinase (Homo sapiens, UniProt P00749); assay: In vitro inhibition of purified enzymes, Ki determination: urokinase (uPA); type: biochemical
T2 construct: purchased Sigma U5004; host or cells: human kidney cells
Excerpt: as §1, with “Sigma.” for “Sigma. N-Succinyl-Ala-Ala-Pro-Arg-p-nitroanilide (BACHEM L-1720) and N-succinyl-Ala-Ala-Pro-Val-p-nitroanilide (BACHEM L-1770) were obtained from BACHEM (King of Prussia, Pa).”
Human α-thrombin, human factor Xa and human plasmin were obtained from Enzyme Research Laboratories (South Bend, Ind.). Bovine α-chymotrypsin (Sigma C4129), bovine trypsin (Sigma T8642) and human kidney cell urokinase (Sigma U5004) were obtained from Sigma. Human leukocyte elastase was obtained from Elastin Products (Pacific, Mo.). Ki Determinations: All assays are based on the ability of the test compound to inhibit the enzyme catalyzed hydrolysis of a peptide p-nitroanilide substrate. […] The final concentrations for each of the substrates is listed below. In general, substrate concentrations are lower than the experimentally determined value for Km. Test compounds are prepared as a 1.0 mg/ml solution in DMSO. Dilutions are prepared in DMSO yielding 8 final concentrations encompassing a 200 fold concentration range. Enzyme solutions are prepared at the concentrations listed below in assay buffer.
Data corresponding to less than 10% of the total substrate hydrolysis were used in the calculations. The ratio of the velocity (rate of change in absorbance as a function of time) for a sample containing no test compound is divided by the velocity of a sample containing test compound, and is plotted as a function of test compound concentration. The data are fit to a linear regression, and the value of the slope of the line calculated. The inverse of the slope is the experimentally determined Ki value. Thrombin: Thrombin activity was assessed as the ability to hydrolyze the substrate N-succinyl-Ala-Ala-Pro-Arg-p-nitroanilide. […] Final DMSO concentration was 4.3%. […] Factor X [FXa]: FXa activity was assessed as the ability to hydrolyze the substrate N-benzoyl-Ile-Glu-Gly-Arg-p-nitroanilide hydrochloride. […] Final DMSO concentration was 4.3%. Purified activated human Factor X was diluted into assay buffer to a concentration of 300 nM. […] Plasmin: Plasmin activity was assessed as the ability to hydrolyze the N-p-Tosyl-Gly-Pro-Lys-p-nitroanilide. […] Final DMSO concentration was 4.3%. […] Chymotrypsin: Chymotrypsin activity was assessed as the ability to hydrolyze N-succinyl-Ala-Ala-Pro-Phe-p-nitroanilide. […] Final DMSO concentration was 4.3%. […] Trypsin: Trypsin activity was assessed as the ability to hydrolyze N-benzoyl-Phe-Val-Arg-p-nitroanilide. […] Final DMSO concentration was 4.3%. […] Elastase: Elastase activity was assessed as the ability to hydrolyze N-succinyl-Ala-Ala-Pro-Val-p-nitroanilide. […] Final DMSO concentration was 4.3%. […] Urokinase: Urokinase activity was assessed as the ability to hydrolyze N-CBZ-Val-Gly-Arg-p-nitroanilide. […] Final DMSO concentration was 4.3%. […] Final reagent concentrations were: [Urokinase]=40 nM, and N-CBZ-Val-Gly-Arg-p-nitroanilide]=[…].

[1] = uPA, substrate N-CBZ-Val-Gly-Arg-p-nitroanilide, [Urokinase]=40 nM, pH 7.5, 37° C., one range stated for the listed compounds, read-out: Ki values for uPA

| Compound | Ki (human kidney urokinase; [1]) | other results |
| --- | --- | --- |
| COc1cccc(-c2csc(-c3cc(C(=N)N)sc3SC)n2)c1 [Example 8, 4-[4-(3-Methoxyphenyl)(1,3-thiazol-2-yl)]-5-methylthiothiophene-2-carboxamidine hydrochloride] | – | Ki (bovine trypsin): 858 nM |
| COc1ccc(OC)c(-c2csc(-c3cc(C(=N)N)sc3SC)n2)c1 [Example 28, 4-[4-(2,5-Dimethoxyphenyl)(1,3-thiazol-2-yl)]-5-methylthiothiophene-2-carboxamidine hydrochloride] | 16 to 3500 nM | – |
| CSc1sc(C(=N)N)cc1-c1nc(-c2cccc(OCC(=O)O)c2)cs1 [Example 40, 2-{3-[2-(5-Amidino-2-methylthio-3-thienyl)-1,3-thiazol-4-yl]phenoxy}acetic acid] | 16 to 3500 nM | – |
| CSc1sc(C(=N)N)cc1-c1nc(-c2cccc(OCC(=O)N3CCOCC3)c2)cs1 [Example 52, 5-Methylthio-4-{4-[3-(2-morpholin-4-yl-2-oxoethox)phenyl](1,3-thiazol-2-yl)}thiophene-2-carboxamidine trifluoroacetate] | – | Ki (bovine trypsin): 474 nM |
| CSc1sc(C(=N)N)cc1-c1ncc(-c2ccccc2)o1 [Example 79, 5-Methylthio-4-(5-phenyl(1,3-oxazol-2-yl))thiophene-2-carboxamidine hydrochloride] | 16 to 3500 nM | – |
| CSc1sc(C(=N)N)cc1-c1nc(-c2ccccc2)co1 [Example 84, 5-Methylthio-4-(4-phenyl(1,3-oxazol-2-yl))thiophene-2-carboxamidine hydrochloride] | 16 to 3500 nM | – |
| CSc1sc(C(=N)N)cc1C(=N)NCc1ccccc1 [Example 89, 4-{Imino[benzylamino]methyl}-5-methylthiothiophene-2-carboxamidine hydrochloride] | 16 to 3500 nM | – |
| CSc1sc(C(=N)N)cc1-c1nc(-c2ccccc2)c(-c2ccccc2)s1 [Example 131, 4-(4,5-Diphenyl(1,3-thiazol-2-yl))-5-methylthiothiophene-2-carboxamidine] | 16 to 3500 nM | – |
| C[S+]([O-])c1sc(C(=N)N)cc1-c1nc(-c2ccc(Cl)cc2)cs1 (stereo not shown) [Example 138, 4-[4-(4-Chlorophenyl)(1,3-thiazol-2-yl)]-5-(methylsulfinyl)thiophene-2-carboxamidine] | 16 to 3500 nM | – |
| COc1sc(C(=N)N)cc1-c1nc(-c2ccccc2)cs1 [Example 139, 5-Methoxy-4-(4-phenyl(1,3-thiazol-2-yl))thiophene-2-carboxamidine] | 16 to 3500 nM | – |
| CSc1sc(C(=N)N)cc1-c1nc(-c2cc(C(C)(C)C)nn2Cc2ccccc2)cs1 [Example 143, 4-{4-[3-(tert-Butyl)-1-benzylpyrazol-5-yl](1,3-thiazol-2-yl)}-5-methylthiothiophene-2-carboxamidine] | 16 to 3500 nM | – |
| CSc1sc(C(=N)N)cc1Nc1ncccn1 [Example 200, 5-Methylthio-4-(pyrimidin-2-ylamino)thiophene-2-carboxamidine hydrochloride] | 16 to 3500 nM | – |
| CSc1sc(C(=N)N)cc1Nc1nc(-c2ccccc2)cs1 [Example 204, 5-Methylthio-4-[(4-phenyl(1,3-thiazol-2-yl))amino]thiophene-2-carboxamidine] | 16 to 3500 nM | – |
| CSc1sc(C(=N)N)cc1Nc1ccc2ccccc2c1 [Example 208, 5-Methylthio-4-(2-naphthylamino)thiophene-2-carboxamidine] | 16 to 3500 nM | – |
| CSc1sc(C(=N)N)cc1Nc1cccc([N+](=O)[O-])c1 [Example 213, 5-Methylthio-4-[(3-nitrophenyl)amino]thiophene-2-carboxamidine] | 16 to 3500 nM | – |
| CSc1sc(C(=N)N)cc1NCc1ccccc1 [Example 220, 5-Methylthio-4-[benzylamino]thiophene-2-carboxamidine] | 16 to 3500 nM | – |
| CSc1sc(C(=N)N)cc1NC(=O)/C=C/c1ccccc1 [Example 227, 4-((2E)-3-Phenylprop-2-enoylamino)-5-methylthiothiophene-2-carboxamidine] | 16 to 3500 nM | – |
| CSc1sc(C(=N)N)cc1NC(=O)c1ccc(Oc2cc(Cl)cc(Cl)c2)o1 [Example 233] | 16 to 3500 nM | – |
| CSc1sc(C(=N)N)cc1NC(=O)c1ccc2ccccc2n1 [Example 235, 5-Methylthio-4-(2-quinolylcarbonylamino)thiophene-2-carboxamidine] | 16 to 3500 nM | – |
| CSc1sc(C(=N)N)cc1NC(=O)COc1ccccc1 [Example 239, 5-Methylthio-4-(2-phenoxyacetylamino)thiophene-2-carboxamidine] | 16 to 3500 nM | – |
| CSc1sc(C(=N)N)cc1N(S(=O)(=O)c1ccc(Cl)cc1)S(=O)(=O)c1ccc(Cl)cc1 [Example 281, 4-{Bis[(4-chlorophenyl)sulfonyl]amino}-5-methylthiothiophene-2-carboxamidine] | 16 to 3500 nM | – |
| CSc1sc(C(=N)N)cc1Oc1ccccc1 [Example 288, 5-Methylthio-4-phenoxythiophene-2-carboxamidine trifluoroacetate] | – | Ki (human kidney urokinase): 16 to 3500 nM |
